14 compounds from US20260327191A1, “GSK3a INHIBITORS AND METHODS OF USE THEREOF” (Blueprint Medicines Corporation, priority 2023, published 2026) can be followed below.

For one assay, the target named is T1, human GSK3α (Homo sapiens, UniProt P49840).
T1 construct: Full length human GSK3α or GSK3B expressed as N-terminal GST fusion proteins; GST (N); purchased Carna Biosciences (Japan); host or cells: baculovirus host
Description: In vitro enzymatic activity assay, GSK3α. Format: biochemical. The conditions noted are these: 1.0 mM ATP, 1.0 μM peptide substrate, 120 min, 25° C, read-out: Enzyme GSK3α (IC50).

The target of assay [1] is T2, GSK3B (Homo sapiens, UniProt P49841). Description: NanoBRET cellular target engagement assay, Nanoluc-GSK3B in HEK293 cells. It is filed as cell-based. Conditions: NanoBRET GSK3β IC50, HEK293 cells, tracer K-8, 2 hours, 37° C. On the set-up: expressed in transfected cells. For orientation: BRET reads energy transfer from a luciferase to a nearby fluorophore.
T2 sequence (P49841 whole entry, the tested form may be a part): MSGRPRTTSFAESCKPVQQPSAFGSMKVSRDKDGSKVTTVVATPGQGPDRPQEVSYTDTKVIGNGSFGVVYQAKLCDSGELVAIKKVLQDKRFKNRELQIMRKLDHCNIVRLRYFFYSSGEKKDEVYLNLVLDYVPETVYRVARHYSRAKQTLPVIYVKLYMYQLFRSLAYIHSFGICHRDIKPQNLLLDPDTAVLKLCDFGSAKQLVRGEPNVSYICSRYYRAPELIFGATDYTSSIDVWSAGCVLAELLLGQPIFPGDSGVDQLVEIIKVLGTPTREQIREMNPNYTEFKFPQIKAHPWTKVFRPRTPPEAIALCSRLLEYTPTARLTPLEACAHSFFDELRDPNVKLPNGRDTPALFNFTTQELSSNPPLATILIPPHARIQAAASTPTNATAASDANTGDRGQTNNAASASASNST
For assay [2], the target named is T2, GSK3B. Description: In vitro enzymatic activity assay, GSK3β. Format: biochemical. The arrangement: Full length human GSK3α or GSK3B expressed as N-terminal GST fusion proteins; GST (N); purchased Carna Biosciences (Japan); host or cells: baculovirus host. The conditions noted are these: 1.0 mM ATP, 1.0 μM peptide substrate, 120 min, 25° C, read-out: Enzyme GSK3β (IC50).

Another assay concerns the target T3, GSK3A (Homo sapiens, UniProt P49840).
T3 construct: expressed in transfected cells
Kind of assay: NanoBRET cellular target engagement assay, Nanoluc-GSK3A in HEK293 cells. It is filed as cell-based. Conditions: NanoBRET GSK3α IC50, HEK293 cells, tracer K-8, 2 hours, 37° C.

T1 sequence (P49840 whole entry, the tested form may be a part): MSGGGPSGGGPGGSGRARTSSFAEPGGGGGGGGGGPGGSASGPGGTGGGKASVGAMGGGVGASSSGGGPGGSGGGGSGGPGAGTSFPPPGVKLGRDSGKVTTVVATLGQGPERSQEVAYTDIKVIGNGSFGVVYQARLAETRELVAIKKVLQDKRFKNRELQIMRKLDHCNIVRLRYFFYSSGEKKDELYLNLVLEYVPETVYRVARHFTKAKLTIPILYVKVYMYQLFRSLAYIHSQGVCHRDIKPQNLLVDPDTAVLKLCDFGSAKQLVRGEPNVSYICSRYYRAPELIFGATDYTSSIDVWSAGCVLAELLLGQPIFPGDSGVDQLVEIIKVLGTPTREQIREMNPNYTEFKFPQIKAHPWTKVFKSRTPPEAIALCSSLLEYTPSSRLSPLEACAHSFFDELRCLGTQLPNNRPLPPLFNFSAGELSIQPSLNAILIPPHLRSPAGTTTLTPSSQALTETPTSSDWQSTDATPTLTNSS
T3 sequence (P49840 whole entry): as the sequence (P49840 whole entry, the tested form may be a part) above

The term IC50 denotes the midpoint of a concentration-inhibition curve. Turning to `C[C@@H](N)c1cncc(NC(=O)c2c(N)ncn(-c3c(Cl)cc(OC4CC4)cc3Cl)c2=O)c1` (single isomer, unassigned) [Example 51, (R)-4-amino-N-(5-(1-aminoethyl)pyridin-3-yl)-1-(2,6-dichloro-4-cyclopropoxyphenyl)-6-oxo-1,6-dihydropyrimidine-5-carboxamide or (S)-4-amino-N-(5-(1-aminoethyl)pyridin-3-yl)-1-(2,6-dichloro-4-cyclopropoxyphenyl)-6-oxo-1,6-dihydropyrimidine-5-carboxamide], the IC50 came to 2.8 nM on human GSK3α, 124 nM at GSK3B [1], 142 nM at GSK3B [2] and 2.2 nM against GSK3A.

Turning to `COc1cc(C)c(-n2cnc(N)c(C(=O)Nc3cncc(C4CCCCCN4)c3)c2=O)c(C)c1` (single isomer, unassigned) [Example 53, (R)-4-amino-N-(5-(azepan-2-yl)pyridin-3-yl)-1-(4-methoxy-2,6-dimethylphenyl)-6-oxo-1,6-dihydropyrimidine-5-carboxamide or (S)-4-amino-N-(5-(azepan-2-yl)pyridin-3-yl)-1-(4-methoxy-2,6-dimethylphenyl)-6-oxo-1,6-dihydropyrimidine-5-carboxamide], the IC50 at human GSK3α is 12.9 nM; against GSK3B [1] it was 356 nM; at GSK3B [2] it was 625 nM; against GSK3A, 6.8 nM.

Consider `C[C@@H](N)c1cncc(NC(=O)c2c(N)ncn(-c3c(Cl)cc(C(F)F)cc3Cl)c2=O)c1` (single isomer, unassigned) [Example 57, (R)-4-amino-N-(5-(1-aminoethyl)pyridin-3-yl)-1-(2,6-dichloro-4-(difluoromethyl)phenyl)-6-oxo-1,6-dihydropyrimidine-5-carboxamide or (S)-4-amino-N-(5-(1-aminoethyl)pyridin-3-yl)-1-(2,6-dichloro-4-(difluoromethyl)phenyl)-6-oxo-1,6-dihydropyrimidine-5-carboxamide], for which the IC50 is 7.9 nM on human GSK3α, 277 nM against GSK3B [1], 382 nM at GSK3B [2] and 5.4 nM against GSK3A.

Regarding `Nc1ncn(-c2c(Cl)cc(C(F)F)cc2Cl)c(=O)c1C(=O)Nc1cncc([C@@H]2COCCCN2)c1` (single isomer, unassigned) [Example 59, (R)-N-(5-(1,4-oxazepan-3-yl)pyridin-3-yl)-4-amino-1-(2,6-dichloro-4-(difluoromethyl)phenyl)-6-oxo-1,6-dihydropyrimidine-5-carboxamide or (S)-N-(5-(1,4-oxazepan-3-yl)pyridin-3-yl)-4-amino-1-(2,6-dichloro-4-(difluoromethyl)phenyl)-6-oxo-1,6-dihydropyrimidine-5-carboxamide], the IC50 at human GSK3α is 3.1 nM; at GSK3B [1], 187 nM; on GSK3B [2], 224 nM; on GSK3A it was 2.5 nM.

As for `COCc1cc(Cl)c(-n2cnc(N)c(C(=O)Nc3cncc([C@@H](C)N)c3)c2=O)c(Cl)c1` (single isomer, unassigned) [Example 66, (R)-4-amino-N-(5-(1-aminoethyl)pyridin-3-yl)-1-(2,6-dichloro-4-(methoxymethyl)phenyl)-6-oxo-1,6-dihydropyrimidine-5-carboxamide or (S)-4-amino-N-(5-(1-aminoethyl)pyridin-3-yl)-1-(2,6-dichloro-4-(methoxymethyl)phenyl)-6-oxo-1,6-dihydropyrimidine-5-carboxamide], the IC50 is 6 nM at human GSK3α, 206 nM against GSK3B [1], 349 nM at GSK3B [2] and 2.9 nM against GSK3A.

With `COCc1cc(Cl)c(-n2cnc(N)c(C(=O)Nc3cncc([C@@H](C)N)c3)c2=O)c(Cl)c1` (single isomer, unassigned) [Example 67, (S)-4-amino-N-(5-(1-aminoethyl)pyridin-3-yl)-1-(2,6-dichloro-4-(methoxymethyl)phenyl)-6-oxo-1,6-dihydropyrimidine-5-carboxamide or (R)-4-amino-N-(5-(1-aminoethyl)pyridin-3-yl)-1-(2,6-dichloro-4-(methoxymethyl)phenyl)-6-oxo-1,6-dihydropyrimidine-5-carboxamide], the half-maximal inhibitory concentration (IC50) at human GSK3α amounted to 2.1 nM; at GSK3B [1] it was 73.4 nM; on GSK3B [2], 105 nM; at GSK3A, 1.4 nM.

Regarding `CCOC[C@H](N)c1cncc(NC(=O)c2c(N)ncn(-c3c(Cl)cc(COC)cc3Cl)c2=O)c1` (single isomer, unassigned) [Example 69, (R)-4-amino-N-(5-(1-amino-2-ethoxyethyl)pyridin-3-yl)-1-(2,6-dichloro-4-(methoxymethyl)phenyl)-6-oxo-1,6-dihydropyrimidine-5-carboxamide or (S)-4-amino-N-(5-(1-amino-2-ethoxyethyl)pyridin-3-yl)-1-(2,6-dichloro-4-(methoxymethyl)phenyl)-6-oxo-1,6-dihydropyrimidine-5-carboxamide], the IC50 is 12.5 nM at human GSK3α, 513 nM on GSK3B [1], 536 nM at GSK3B [2] and 7 nM on GSK3A.

`COCc1cc(Cl)c(-n2cnc(N)c(C(=O)Nc3cncc([C@H](N)CC(F)F)c3)c2=O)c(Cl)c1` (single isomer, unassigned) [Example 70, (R)-4-amino-N-(5-(1-amino-3,3-difluoropropyl)pyridin-3-yl)-1-(2,6-dichloro-4-(methoxymethyl)phenyl)-6-oxo-1,6-dihydropyrimidine-5-carboxamide or (S)-4-amino-N-(5-(1-amino-3,3-difluoropropyl)pyridin-3-yl)-1-(2,6-dichloro-4-(methoxymethyl)phenyl)-6-oxo-1,6-dihydropyrimidine-5-carboxamide]: the IC50 on human GSK3α was 2.9 nM; on GSK3B [1] it was 201 nM; on GSK3B [2], 145 nM; against GSK3A, 2.4 nM.

Turning to `COc1cc(Cl)c(-n2cnc(N)c(C(=O)Nc3cncc([C@@H](C)N)c3)c2=O)c(Cl)c1` (single isomer, unassigned) [Example 74, (R)-4-amino-N-(5-(1-aminoethyl)pyridin-3-yl)-1-(2,6-dichloro-4-methoxyphenyl)-6-oxo-1,6-dihydropyrimidine-5-carboxamide or (S)-4-amino-N-(5-(1-aminoethyl)pyridin-3-yl)-1-(2,6-dichloro-4-methoxyphenyl)-6-oxo-1,6-dihydropyrimidine-5-carboxamide], the IC50 at human GSK3α was found to be 9.6 nM; at GSK3B [1], 363 nM; at GSK3B [2], 465 nM; against GSK3A, 6.6 nM.

For the compound `COc1cc(Cl)c(-n2cnc(N)c(C(=O)Nc3cncc([C@@H]4COCCCN4)c3)c2=O)c(Cl)c1` (single isomer, unassigned) [Example 75, (R)-N-(5-(1,4-oxazepan-3-yl)pyridin-3-yl)-4-amino-1-(2,6-dichloro-4-methoxyphenyl)-6-oxo-1,6-dihydropyrimidine-5-carboxamide or (S)-N-(5-(1,4-oxazepan-3-yl)pyridin-3-yl)-4-amino-1-(2,6-dichloro-4-methoxyphenyl)-6-oxo-1,6-dihydropyrimidine-5-carboxamide], the IC50 was determined as 2.4 nM at human GSK3α, 186 nM against GSK3B [1], 106 nM on GSK3B [2] and 3.6 nM against GSK3A.

In the case of `COc1cc(Cl)c(-n2cnc(N)c(C(=O)Nc3cnc(F)c([C@@H]4CCCCN4)c3)c2=O)c(Cl)c1` (single isomer, unassigned) [Example 76, (S)-4-amino-1-(2,6-dichloro-4-methoxyphenyl)-N-(6-fluoro-5-(piperidin-2-yl)pyridin-3-yl)-6-oxo-1,6-dihydropyrimidine-5-carboxamide or (R)-4-amino-1-(2,6-dichloro-4-methoxyphenyl)-N-(6-fluoro-5-(piperidin-2-yl)pyridin-3-yl)-6-oxo-1,6-dihydropyrimidine-5-carboxamide], the IC50 was found to be 16 nM at human GSK3α, 591 nM against GSK3B [1], 854 nM at GSK3B [2] and 9.4 nM against GSK3A.

For `COc1cc(Cl)c(-n2cnc(N)c(C(=O)Nc3cncc(C4CCC(C)N4)c3)c2=O)c(Cl)c1` (single isomer, unassigned) [Example 78], the IC50 is 11.4 nM at human GSK3α, 703 nM against GSK3B [1], 958 nM at GSK3B [2] and 7.7 nM against GSK3A.

`COc1cc(Cl)c(-n2cnc(N)c(C(=O)Nc3cncc(C4CCC(C)N4)c3)c2=O)c(Cl)c1` (single isomer, unassigned) [Example 79]: the IC50 worked out at 4.3 nM on human GSK3α, 170 nM against GSK3B [1], 317 nM at GSK3B [2] and 2.4 nM on GSK3A.

With `CN[C@@H](COC)c1cncc(NC(=O)c2c(N)ncn(-c3c(Cl)cc(OC)cc3Cl)c2=O)c1` (single isomer, unassigned) [Example 80, (R)-4-amino-1-(2,6-dichloro-4-methoxyphenyl)-N-(5-(2-methoxy-1-(methylamino)ethyl)pyridin-3-yl)-6-oxo-1,6-dihydropyrimidine-5-carboxamide or (S)-4-amino-1-(2,6-dichloro-4-methoxyphenyl)-N-(5-(2-methoxy-1-(methylamino)ethyl)pyridin-3-yl)-6-oxo-1,6-dihydropyrimidine-5-carboxamide], the IC50 on human GSK3α was 2.5 nM; on GSK3B [1], 271 nM; at GSK3B [2], 270 nM; on GSK3A, 2.9 nM.
